Numbers after ± are expanded uncertainties.
Columns and labels:
[1] = 101 kPa, Liquid; for viscosity: Falling or rolling sphere viscometry; for mass density: Vibrating tube method
[2] = xn = mol fraction of the nth substance listed; details: 101 kPa, Liquid, x1 = 1; for viscosity: Falling or rolling sphere viscometry; for mass density: Vibrating tube method

| Structure (SMILES) | viscosity ([1]; 308.15 K) | mass density ([1]; 308.15 K) | viscosity ([1]; 313.15 K) | mass density ([1]; 313.15 K) | viscosity ([1]; 318.15 K) | mass density ([1]; 318.15 K) | viscosity ([1]; 323.15 K) | mass density ([1]; 323.15 K) | mass density ([1]; 328.15 K) | mass density ([1]; 333.15 K) | mass density ([1]; 338.15 K) | mass density ([1]; 343.15 K) | also measured |
| --- | --- | --- | --- | --- | --- | --- | --- | --- | --- | --- | --- | --- | --- |
| CCC(C)O (stereo not given) [butan-2-ol] | 2.128 ± 0.017 mPa·s | 794.05 ± 0.14 kg/m3 | 1.822 ± 0.015 mPa·s | 789.65 ± 0.14 kg/m3 | 1.533 ± 0.013 mPa·s | 785.15 ± 0.14 kg/m3 | 1.315 ± 0.011 mPa·s | 780.55 ± 0.15 kg/m3 | 775.83 ± 0.15 kg/m3 | 770.99 ± 0.15 kg/m3 | 766.03 ± 0.15 kg/m3 | 760.96 ± 0.15 kg/m3 | viscosity ([1]; 333.15 K): 1.025 ± 0.0087 mPa·s |
| CCC(C)O (stereo not given) [butan-2-ol] + CC(C)CO |  |  |  |  |  |  |  |  |  |  |  |  | viscosity ([2]; 308.15 K): 2.128 ± 0.017 mPa·s; mass density ([2]; 308.15 K): 794.05 ± 0.14 kg/m3; viscosity ([2]; 313.15 K): 1.822 ± 0.015 mPa·s; mass density ([2]; 313.15 K): 789.65 ± 0.14 kg/m3; viscosity ([2]; 318.15 K): 1.533 ± 0.013 mPa·s; mass density ([2]; 318.15 K): 785.15 ± 0.14 kg/m3; viscosity ([2]; 323.15 K): 1.315 ± 0.011 mPa·s; mass density ([2]; 323.15 K): 780.55 ± 0.15 kg/m3; mass density ([2]; 328.15 K): 775.83 ± 0.15 kg/m3; viscosity ([2]; 333.15 K): 1.025 ± 0.0087 mPa·s; mass density ([2]; 333.15 K): 770.99 ± 0.15 kg/m3; mass density ([2]; 338.15 K): 766.03 ± 0.15 kg/m3; mass density ([2]; 343.15 K): 760.96 ± 0.15 kg/m3 |
| CC(C)CO [2-methyl-1-propanol] | 2.382 ± 0.019 mPa·s | 790.12 ± 0.12 kg/m3 | 2.116 ± 0.017 mPa·s | 786.12 ± 0.12 kg/m3 | 1.861 ± 0.015 mPa·s | 782.06 ± 0.12 kg/m3 | 1.602 ± 0.013 mPa·s | 777.93 ± 0.12 kg/m3 | 773.73 ± 0.12 kg/m3 | 769.44 ± 0.13 kg/m3 | 765.07 ± 0.13 kg/m3 | 760.61 ± 0.13 kg/m3 |  |
| CC(C)(C)O [2-methylpropan-2-ol] | 2.589 ± 0.02 mPa·s | 770.36 ± 0.13 kg/m3 | 2.089 ± 0.016 mPa·s | 765.07 ± 0.13 kg/m3 | 1.69 ± 0.013 mPa·s | 759.67 ± 0.13 kg/m3 | 1.409 ± 0.011 mPa·s | 754.19 ± 0.13 kg/m3 | 748.62 ± 0.13 kg/m3 | 742.95 ± 0.14 kg/m3 | 737.19 ± 0.14 kg/m3 | 731.31 ± 0.14 kg/m3 |  |

Source: the NIST ThermoML archive (doi:10.1021/je400423u)
